Reference: patent publication US20130123494A1, “COMPLEX COMPOUND AND OPTICAL RECORDING MEDIUM CONTAINING SAME” (KH NEOCHEM CO., LTD., priority 2010, published 2013)

Legend:
Assay type in all cases: physicochemical
[1] = Moisture- and heat-resistances test of thin films; details: thin film, 80° C., relative humidity 80%, 100 hours
Experimental: Similarly to the film-forming test, thin films of Complex Compounds (2) to (5), (7), (9) to (11), (13) to (21), (24), (26), (28), (30), (31), and (33) were respectively obtained. Using a constant temperature and humidity chamber, KHWII-40HP, manufactured by Satake Chemical Equipment Mfg Ltd., the thin films were exposed in the atmosphere having a temperature of 80° C. and a relative humidity of 80% for 100 hours. Ultraviolet-visible absorption spectra of the thin films before and after the moisture- and heat-resistances test were measured using a spectrophotometer. […] Here, the absorption maximum wavelength after the moisture- and heat-resistances test denotes the absorption maximum wavelength in an absorption spectrum after the moisture- and heat-resistances test.

[2] = Lightfastness test of thin films; details: thin film on glass plate, UV fluorescent lamps 15 W/m^2, 45° C., 10 hours
From the text: Thin films of Complex Compounds (2) to (5), (7), (9) to (11), (13) to (21), (24), (26), (28), (30), (31), and (33) were respectively obtained similarly to the film-forming test except that a glass plate (manufactured by Taiyu Kizai Co., Ltd.; 2 cm×2 cm; thickness: 2 mm) was used as the substrates instead of the plate made of polycarbonate resin. Using a dewpanel light control weather meter DPWL-5R, manufactured by Suga Test Instruments Co., Ltd., which was equipped with ultraviolet fluorescent lamps (SUGA-FS40, manufactured by Suga Test Instruments Co., Ltd., having a peak wavelength of 313 nm and an illuminance distribution of 282 nm to 373 nm), light was irradiated on the thin films with an amount of light of 15 W/m^2 at 45° C. for 10 hours. Ultraviolet-visible absorption spectra of the thin film before and after the lightfastness test were measured using a spectrophotometer.
Here, the absorption maximum wavelength after lightfastness test denotes an absorption maximum wavelength in the absorption spectrum after the lightfastness test.

[3] = Test of storage stability in solution; details: 13 mg in 1 mL TFP, brown bottle, 25° C., 3 days; 1250-fold diluted for measurement
Experimental: Each of 13 mg of Complex Compounds (2) to (5), (7), (9) to (11), (13) to (21), (24), (26), (28), (30), (31), and (33) was dissolved in 1 mL of TFP, which was filtered with a filter made of TEFLON (registered trademark) (manufactured by Whatman, having a pore diameter of 0.20 μm), and solutions of Complex Compounds (2) to (5), (7), (9) to (11), (13) to (21), (24), (26), (28), (30), (31), and (33) were respectively obtained. Each of the obtained solutions was transferred to a brown bottle with a lid and stored at 25° C. for 3 days. Before and after the storage stability test, using a spectrophotometer, 1250-fold diluted solutions of Complex Compounds (2) to (5), (7), (9) to (11), (13) to (21), (24), (26), (28), (30), (31), and (33), respectively, were measured for their ultraviolet-visible absorption spectra. […] Here, the absorption maximum wavelength after the storage stability test is the absorption maximum wavelength in the absorption spectrum after the storage stability test.

[4] = Water resistance test of thin films
Experimental: Similarly to the film-forming test, thin films of Complex Compounds (2), (3), (13), (19), and (20) were respectively obtained. Ultraviolet-visible absorption spectra of the thin films were measured using a spectrophotometer before and after the water resistance test in which the thin films were immersed in water at 75° C. for 30 minutes. […] Here, the absorption maximum wavelength after the water resistance test denotes the absorption maximum wavelength in the absorption spectrum after the water resistance test. […] Here, the water resistance test is a test under severe conditions, and a thin film having the ratio (I^d/I^d0) of 0.5 or greater has favorable water resistance.

[5] = thin film immersed in water at 75° C. for 30 minutes

| Structure (SMILES) | I^b/I^b0 (absorbance ratio at absorption maximum after/before moisture- and heat-resistances test) [1] | Δλmax(b) (change in absorption maximum wavelength) [1] [nm] | I^a/I^a0 (absorbance ratio at absorption maximum after/before lightfastness test) [2] | I^c/I^c0 (absorbance ratio at absorption maximum after/before storage stability test) [3] | Δλmax(c) (change in absorption maximum wavelength) [3] [nm] | I^d/I^d0 (absorbance ratio at absorption maximum after/before water resistance test) [4, 5] | Δλmax (d) (change in absorption maximum wavelength) [4, 5] [nm] | Water resistance of thin film (in words) ([4]; thin film in water at 75° C. for 30 minutes) |
| --- | --- | --- | --- | --- | --- | --- | --- | --- |
| CCCCn1c([O-])c(/C=N/[N-]c2nnnn2-c2ccccc2)c(C)c(C#N)c1=O.CCCCn1c([O-])c(/C=N/[N-]c2nnnn2-c2ccccc2)c(C)c(C#N)c1=O.CCCCn1c([O-])c(/C=N/[N-]c2nnnn2-c2ccccc2)c(C)c(C#N)c1=O.CCCCn1c([O-])c(/C=N/[N-]c2nnnn2-c2ccccc2)c(C)c(C#N)c1=O.Fc1cccc(-[n+]2ccc(-c3cc[n+](-c4cccc(F)c4)cc3)cc2)c1.[Co+3].[Co+3] [Complex Compound (2)] | 0.97 | 0.5 | 0.92 | 1.00 | 0 | 0.73 | 0.5 | superior water resistance |
| CCCCn1c([O-])c(/C=N/[N-]c2nnnn2-c2ccccc2)c(CCC)c(C#N)c1=O.CCCCn1c([O-])c(/C=N/[N-]c2nnnn2-c2ccccc2)c(CCC)c(C#N)c1=O.CCCCn1c([O-])c(/C=N/[N-]c2nnnn2-c2ccccc2)c(CCC)c(C#N)c1=O.CCCCn1c([O-])c(/C=N/[N-]c2nnnn2-c2ccccc2)c(CCC)c(C#N)c1=O.[Co+3].[Co+3].c1cc2ccc3ccc[n+]4c3c2[n+](c1)CCC4 [Complex Compound (28)] | 0.99 | 0 | 0.88 | 0.99 | 0 | – | – | – |
| Cc1c(/C=N/[N-]c2nnnn2-c2ccccc2)c([O-])n(CC(C)C)c(=O)c1C#N.Cc1c(/C=N/[N-]c2nnnn2-c2ccccc2)c([O-])n(CC(C)C)c(=O)c1C#N.Cc1c(/C=N/[N-]c2nnnn2-c2ccccc2)c([O-])n(CC(C)C)c(=O)c1C#N.Cc1c(/C=N/[N-]c2nnnn2-c2ccccc2)c([O-])n(CC(C)C)c(=O)c1C#N.[Co+3].[Co+3].c1ccc2c[n+](CCCCCCCCCC[n+]3ccc4ccccc4c3)ccc2c1 [Complex Compound (16)] | 1.00 | 0 | 0.90 | 1.01 | 0 | – | – | – |
| Cc1c(/C=N/[N-]c2nc3ccccc3o2)c([O-])n(Cc2ccco2)c(=O)c1C#N.Cc1c(/C=N/[N-]c2nc3ccccc3o2)c([O-])n(Cc2ccco2)c(=O)c1C#N.Cc1c(/C=N/[N-]c2nc3ccccc3o2)c([O-])n(Cc2ccco2)c(=O)c1C#N.Cc1c(/C=N/[N-]c2nc3ccccc3o2)c([O-])n(Cc2ccco2)c(=O)c1C#N.Fc1cccc(-[n+]2ccc(-c3cc[n+](-c4cccc(F)c4)cc3)cc2)c1.[Co+3].[Co+3] [Complex Compound (24)] | 1.00 | 0.5 | 0.92 | 1.02 | 0.5 | – | – | – |
| Cc1c(/C=N/[N-]c2nnnn2-c2ccccc2)c([O-])n(CC(C)C)c(=O)c1C#N.Cc1c(/C=N/[N-]c2nnnn2-c2ccccc2)c([O-])n(CC(C)C)c(=O)c1C#N.Cc1c(/C=N/[N-]c2nnnn2-c2ccccc2)c([O-])n(CC(C)C)c(=O)c1C#N.Cc1c(/C=N/[N-]c2nnnn2-c2ccccc2)c([O-])n(CC(C)C)c(=O)c1C#N.[Co+3].[Co+3].c1ccc2c(c1)ccc[n+]2CCCC[n+]1cccc2ccccc21 [Complex Compound (21)] | 1.00 | 0.5 | 0.87 | 1.01 | 0.5 | – | – | – |
| COc1ccc2cc3[n+](cc2c1OC)CCc1cc2c(cc1-3)OCO2.Cc1c(/C=N/[N-]c2nnnn2-c2ccccc2)c([O-])n(CC(C)C)c(=O)c1C#N.Cc1c(/C=N/[N-]c2nnnn2-c2ccccc2)c([O-])n(CC(C)C)c(=O)c1C#N.[Co+3] [Complex Compound (18)] | 1.00 | 0 | 0.90 | 1.00 | 0 | – | – | – |
| Cc1c(/C=N/[N-]c2nnnn2-c2ccccc2)c([O-])n(CC(C)C)c(=O)c1C#N.Cc1c(/C=N/[N-]c2nnnn2-c2ccccc2)c([O-])n(CC(C)C)c(=O)c1C#N.Cc1c(/C=N/[N-]c2nnnn2-c2ccccc2)c([O-])n(CC(C)C)c(=O)c1C#N.Cc1c(/C=N/[N-]c2nnnn2-c2ccccc2)c([O-])n(CC(C)C)c(=O)c1C#N.[Co+3].[Co+3].c1cc[n+]2c(c1)-c1cccc[n+]1CCC2 [Complex Compound (14)] | 1.00 | 0 | 0.92 | 1.01 | 0 | – | – | – |
| Cc1c(/C=N/[N-]c2nnnn2-c2ccccc2)c([O-])n(Cc2ccccc2)c(=O)c1C#N.Cc1c(/C=N/[N-]c2nnnn2-c2ccccc2)c([O-])n(Cc2ccccc2)c(=O)c1C#N.Cc1c(/C=N/[N-]c2nnnn2-c2ccccc2)c([O-])n(Cc2ccccc2)c(=O)c1C#N.Cc1c(/C=N/[N-]c2nnnn2-c2ccccc2)c([O-])n(Cc2ccccc2)c(=O)c1C#N.[Co+3].[Co+3].c1ccc(CC[N+]23CC[N+](CCc4ccccc4)(CC2)CC3)cc1 [Complex Compound (31)] | 1.00 | 0 | 0.85 | 1.02 | 0 | – | – | – |
